Here are results for two molecules from patent US20210299098A1, “SELECTIVE ESTROGEN RECEPTOR MODULATOR FOR TREATMENT OF PANCREATIC CANCER” (CIPLA LIMITED, priority 2020, published 2021).

SMILES strings stand for the structures.

The conditions of series [1]: used as oral contraceptive; cited from earlier work.
Series [2] concerns estrogen receptor. As to conditions: according to literature; cited from earlier work.
Series [3] deals with Panc 1 pancreatic cancer cell line. Nature of the series: CellTiter-Blue cell viability assay, Panc1. The format is cell-based. The following applies: Homo sapiens, 96 hours treatment. The method, then: (§1) The in vitro anti-tumor activity of levormeloxifene or its pharmaceutically acceptable salt was evaluated in six human pancreatic cancer cell lines: AsPc 1 (A), BxPC3 (B), Miapaca2 (C), Panc 10.05 (D), SW1990 (E) and Panc 1 (F). AsPc 1 (A), BxPC3 (B), Miapaca2 (C), Panc 10.05 (D), SW1990 (E) and Panc 1 (F) were established at Oncotest from the corresponding human patient derived xenograft. CAPAN-2, HUP-T3 and PA-TU-8902 were purchased from DSMZ (Braunschweig, Germany). PANC-1 was purchased from CLS Cell Line Services GmbH (Eppelheim, Germany). BxPC-3, HPAC and MIA-Pa-Ca-2 were purchased from ATCC (Rockville, Md., USA). Authenticity of cell lines was confirmed at the DSMZ by STR (short tandem repeat) analysis, a PCR based DNA-fingerprinting methodology. Cell lines were routinely passaged once or twice weekly and maintained in culture for up to 20 passages. […] Briefly, cells were harvested from exponential phase cultures, counted and plated in 96-well flat-bottom microtiter plates at a cell density of 6,000-20,000 cells/well depending on the cell line's growth rate. […] Following an incubation period of up to four hours, fluorescence (FU) was measured by using the Enspire Multimode Plate Reader (excitation λ=531 nm, emission λ=615 nm). […]
On the technique in general: The colour change of resazurin is a common sign of viable cells or microbes.

Series [4] concerns AsPc 1 pancreatic cancer cell line. Nature of the series: CellTiter-Blue cell viability assay, AsPC1. The format is cell-based. The following applies: Homo sapiens, 96 hours treatment. The method, then: as §1
Series [5] relates to SW1990 pancreatic cancer cell line. As to the kind of experiment: CellTiter-Blue cell viability assay, SW1990. Type of series: cell-based. As to conditions: Homo sapiens, 96 hours treatment. The method, then: as §1
Series [6] relates to human pancreatic cancer cell lines. Nature of the series: CellTiter-Blue cell viability assay, panel of pancreatic cancer cell lines. The format is cell-based. Here is the method: The in vitro anti-tumor activity of levormeloxifene or its pharmaceutically acceptable salt was evaluated in six human pancreatic cancer cell lines: AsPc 1 (A), BxPC3 (B), Miapaca2 (C), Panc 10.05 (D), SW1990 (E) and Panc 1 (F).
AsPc 1 (A), BxPC3 (B), Miapaca2 (C), Panc 10.05 (D), SW1990 (E) and Panc 1 (F) were established at Oncotest from the corresponding human patient derived xenograft. CAPAN-2, HUP-T3 and PA-TU-8902 were purchased from DSMZ (Braunschweig, Germany). PANC-1 was purchased from CLS Cell Line Services GmbH (Eppelheim, Germany). BxPC-3, HPAC and MIA-Pa-Ca-2 were purchased from ATCC (Rockville, Md., USA). Authenticity of cell lines was confirmed at the DSMZ by STR (short tandem repeat) analysis, a PCR based DNA-fingerprinting methodology. Cell lines were routinely passaged once or twice weekly and maintained in culture for up to 20 passages. […]
The CellTiter-Blue® Cell Viability Assay (#G8081, Promega) was used according to manufacturer's instructions. Briefly, cells were harvested from exponential phase cultures, counted and plated in 96-well flat-bottom microtiter plates at a cell density of 6,000-20,000 cells/well depending on the cell line's growth rate. […] Following an incubation period of up to four hours, fluorescence (FU) was measured by using the Enspire Multimode Plate Reader (excitation λ=531 nm, emission λ=615 nm). […]

In series [7] the test system is HPAC cell line. Nature of the series: CellTiter-Blue cell viability assay, HPAC. As to conditions: Homo sapiens, most resistant cell line, read-out: individual IC50. Type of series: cell-based.
Excerpt: as §1, with “AsPc” for “The in vitro anti-tumor activity of levormeloxifene or its pharmaceutically acceptable salt was evaluated in six human pancreatic cancer cell lines: AsPc 1 (A), BxPC3 (B), Miapaca2 (C), Panc 10.05 (D), SW1990 (E) and Panc 1 (F). AsPc”, “passages. All cells were grown at 37° C. in a humidified atmosphere with 5% CO2 in RPMI 1640 medium (25 mM HEPES, with L-glutamine, #FG1385, Biochrom, Berlin, Germany) supplemented with 10% (v/v) fetal calf serum (Sigma, Taufkirchen, Germany) and 0.1 mg/mL gentamicin (Life Technologies, Karlsruhe, Germany).” for “passages.”

For series [8], the system named is BxPC3 pancreatic cancer cell line. As to the kind of experiment: CellTiter-Blue cell viability assay, BxPC3. As to conditions: Homo sapiens, BXPC-3, 96 hours treatment. Type of series: cell-based. The method, then:
as §1

Series [9] deals with PA-TU-8902 cell line. Nature of the series: CellTiter-Blue cell viability assay, PA-TU-8902. The format is cell-based. The following applies: Homo sapiens, PaTu 8902; PA-TU-8902, text value; read-out: individual IC50.
Excerpt: as §1, with “AsPc” for “The in vitro anti-tumor activity of levormeloxifene or its pharmaceutically acceptable salt was evaluated in six human pancreatic cancer cell lines: AsPc 1 (A), BxPC3 (B), Miapaca2 (C), Panc 10.05 (D), SW1990 (E) and Panc 1 (F). AsPc”, “passages. All cells were grown at 37° C. in a humidified atmosphere with 5% CO2 in RPMI 1640 medium (25 mM HEPES, with L-glutamine, #FG1385, Biochrom, Berlin, Germany) supplemented with 10% (v/v) fetal calf serum (Sigma, Taufkirchen, Germany) and 0.1 mg/mL gentamicin (Life Technologies, Karlsruhe, Germany).” for “passages.”

Series [10] relates to Miapaca2 pancreatic cancer cell line. Nature of the series: CellTiter-Blue cell viability assay, Miapaca2. The following applies: Homo sapiens, MIA PaCa-2; Miapaca1 cell line as printed; 96 hours treatment. The format is cell-based. The method, then: as §1
The subject of series [11] is Panc 10.05 pancreatic cancer cell line. Nature of the series: CellTiter-Blue cell viability assay, Panc10.05. Type of series: cell-based. The following applies: Homo sapiens, Panc1005; Panc10.05 cell line; 96 hours treatment. Here is the method: as §1

The IC50 is the concentration needed to halve the response being measured.

Regarding `COc1ccc2c(c1)OC(C)(C)C(c1ccccc1)C2c1ccc(OCCN2CCCC2)cc1` (stereo not drawn) [Centchroman, ormeloxifene], in [1], the half-life result is reported as “about 168 hours”.
In the case of `COc1ccc2c(c1)OC(C)(C)[C@@H](c1ccccc1)[C@@H]2c1ccc(OCCN2CCCC2)cc1` [levormeloxifene, (−)-3,4-trans-7-methoxy-2,2-dimethyl-3-phenyl-4-[4-[2-(pyrrolidin-1-yl)ethoxy]phenyl]chromane], the “receptor affinity relative to the D-isomer” value in series [2] is reported as “about 7 times”. Also, the IC50 in series [3] turned out to be 24 µM; in series [4] it was 18 µM; in series [5], 27 µM; in [7], 5350 µM; in [8], 21 µM; in [9], 1030 µM. Besides, the IC50 in series [10] was determined as 22 µM; in [11] it was 24 µM. In addition, the “difference between the most sensitive and most resistant cell line” value in [6] (HUP-T3 vs HPAC IC50) amounted to 7.4 fold. For the same molecule, the “activity in all cell lines tested (concentration-effect curves)” value in series [6] (sigmoidal concentration-effect curves) was “concentration-dependent activity”.
